These results are taken from patent US20190224164A1, “COMPOSITIONS AND METHODS FOR TREATMENT OF COPD” (Bodor Laboratories, Inc., priority 2016, published 2019).

This test has as its system acetylcholine-induced bronchoconstriction. As to the kind of experiment: Acetylcholine induced bronchoconstriction in anesthetized guinea pigs. Format: in vivo, guinea pig.

Experimental: Male Hartley guinea pigs (320±120 g) (Charles River) are housed under standard conditions. Guinea pigs are anesthetized with urethane (2 g/kg, intraperitoneally), the trachea are cannulated and the animal is respired using a small animal respiratory pump (Harvard Apparatus LTD, Kent UK). Respiratory back pressure is measured and recorded using a rodent lung function recording system (MUMED, London UK). For drug administration the right jugular vein is cannulated. Following the surgical procedure, guinea pigs are allowed to stabilize for 20 minutes. Ten minutes before acetylcholine administration, the animals are disconnected from the ventilator and either the vehicle (10 mg lactose) or different amounts of the drug (suspended in the same amount of vehicle) are administered intratracheally. The trachea is reconnected to the ventilator and changes in pulmonary mechanics are followed. Acetylcholine (10 μg/kg) is administered intravenously in every 10 minutes six times. Male Hartley guinea pigs (320±120 g) (Charles River) are housed under standard conditions. Guinea pigs are anesthetized with urethane (2 g/kg, intraperitoneally), the trachea are cannulated and the animal is respired using a small animal respiratory pump (Harvard Apparatus LTD, Kent UK). Respiratory back pressure is measured and recorded using a rodent lung function recording system (MUMED, London UK). […]

As to `C[N+]1(C)CCC(OC(=O)C(O)(c2ccccc2)C2CCCC2)C1` (centres unmarked) [glycopyrrolate], the “protective effect on the acetylcholine-induced bronchoconstriction” value reads like this: (drug intratracheally ten minutes before acetylcholine (10 μg/kg i.v.)) “protective effect”; (ester and zwitterion or their combination products intratracheally, acetylcholine 10 μg/kg i.v.) “protective effect”.
